System: K24384-001-R-PDC complex spheroid growth
Assay: Anticancer human tumor K24384-001-R-PDC patient-derived pancreatic adenocarcinoma cell line growth inhibition [AhR]
Settings: for IC50: curve of first compound; for viability, T/C: stronger effect = lower value
Procedure, shortened: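 Complex tumor spheroids co-cultured with HUVEC and human MSC stroma; AhR antagonists tested in combination with standard-of-care and investigational agents. Top concentration at or near clinical Cmax (else 10 microM), half-log dilutions; growth expressed as percent test/control.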

[1] = second compound 0.1 µM, first compound 0.000949 µM
[2] = second compound 0.1 µM, first compound 0.003 µM
[3] = second compound 0.1 µM, first compound 0.00949 µM
[4] = second compound 0.1 µM, first compound 0.03 µM
[5] = second compound 0.1 µM, first compound 0.0949 µM
[6] = second compound 0.1 µM, first compound 0.3 µM
[7] = second compound 0.316 µM, first compound 0.000949 µM
[8] = second compound 0.316 µM, first compound 0.003 µM
[9] = second compound 0.316 µM, first compound 0.00949 µM
[10] = second compound 0.316 µM, first compound 0.03 µM
[11] = second compound 0.316 µM, first compound 0.0949 µM
[12] = second compound 0.316 µM, first compound 0.3 µM
[13] = second compound 1 µM, first compound 0.000949 µM
[14] = second compound 1 µM, first compound 0.003 µM
[15] = second compound 1 µM, first compound 0.00949 µM
[16] = second compound 1 µM, first compound 0.03 µM
[17] = second compound 1 µM, first compound 0.0949 µM
[18] = second compound 1 µM, first compound 0.3 µM
[19] = second compound 3.16 µM, first compound 0.000949 µM
[20] = second compound 3.16 µM, first compound 0.003 µM
[21] = second compound 3.16 µM, first compound 0.00949 µM
[22] = second compound 3.16 µM, first compound 0.03 µM
[23] = second compound 3.16 µM, first compound 0.0949 µM
[24] = second compound 3.16 µM, first compound 0.3 µM
[25] = second compound 10 µM, first compound 0.000949 µM
[26] = second compound 10 µM, first compound 0.003 µM
[27] = second compound 10 µM, first compound 0.00949 µM
[28] = second compound 10 µM, first compound 0.03 µM
[29] = second compound 10 µM, first compound 0.0949 µM
[30] = second compound 10 µM, first compound 0.3 µM
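For viability, T/C in this document: percent of DMSO vehicle-treated spheroid viability set as 100%.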

Compound: CC(C)CC(NC(=O)C(Cc1ccccc1)NC(=O)c1cnccn1)B(O)O (stereo not given) + Cc1ccccc1N=Nc1ccc(NC(=O)c2ccnn2C)c(C)c1
- IC50 (second compound 0.1 µM): 10.7 nM
- IC50 (second compound 0.316 µM): 9.9 nM
- IC50 (second compound 1 µM): 11.2 nM
- IC50 (second compound 3.16 µM): 9.78 nM
- IC50 (second compound 10 µM): 10.5 nM
- viability, T/C [1]: 106%
- viability, T/C [2]: 90%
- viability, T/C [3]: 57.3%
- viability, T/C [4]: 1.13%
- viability, T/C [5]: 0.15%
- viability, T/C [6]: 0.42%
- viability, T/C [7]: 95.3%
- viability, T/C [8]: 76.8%
- viability, T/C [9]: 54%
- viability, T/C [10]: 1.07%
- viability, T/C [11]: 0.38%
- viability, T/C [12]: 0.33%
- viability, T/C [13]: 104%
- viability, T/C [14]: 79.5%
- viability, T/C [15]: 60.4%
- viability, T/C [16]: 1.14%
- viability, T/C [17]: 0.44%
- viability, T/C [18]: 0.38%
- viability, T/C [19]: 83.9%
- viability, T/C [20]: 102%
- viability, T/C [21]: 51.3%
- viability, T/C [22]: 1.31%
- viability, T/C [23]: 0.31%
- viability, T/C [24]: 0.48%
- viability, T/C [25]: 97.4%
- viability, T/C [26]: 115%
- viability, T/C [27]: 54.7%
- viability, T/C [28]: 2.19%
- viability, T/C [29]: 1.72%
- viability, T/C [30]: 0.66%

Compound: CCc1c2c(nc3ccc(O)cc13)-c1cc3c(c(=O)n1C2)COC(=O)[C@]3(O)CC + Cc1ccccc1N=Nc1ccc(NC(=O)c2ccnn2C)c(C)c1
- IC50 (second compound 0.1 µM): 8.69 nM
- IC50 (second compound 0.316 µM): 29.2 nM
- IC50 (second compound 1 µM): 8.68 nM
- IC50 (second compound 3.16 µM): 19.8 nM
- IC50 (second compound 10 µM): 68 nM
- viability, T/C [1]: 74.2%
- viability, T/C [2]: 72.8%
- viability, T/C [3]: 48.1%
- viability, T/C [4]: 48.9%
- viability, T/C [5]: 49.8%
- viability, T/C [6]: 36.7%
- viability, T/C [7]: 96.2%
- viability, T/C [8]: 77.7%
- viability, T/C [9]: 58.1%
- viability, T/C [10]: 51.6%
- viability, T/C [11]: 41.9%
- viability, T/C [12]: 31.4%
- viability, T/C [13]: 77.4%
- viability, T/C [14]: 100%
- viability, T/C [15]: 46.7%
- viability, T/C [16]: 45.2%
- viability, T/C [17]: 47.6%
- viability, T/C [18]: 30.8%
- viability, T/C [19]: 73.3%
- viability, T/C [20]: 62%
- viability, T/C [21]: 55.6%
- viability, T/C [22]: 46.1%
- viability, T/C [23]: 41.5%
- viability, T/C [24]: 30%
- viability, T/C [25]: 94%
- viability, T/C [26]: 82%
- viability, T/C [27]: 64.3%
- viability, T/C [28]: 65.7%
- viability, T/C [29]: 48.6%
- viability, T/C [30]: 29.3%

Compound: COc1cc(Nc2ncc3c(n2)-c2ccc(Cl)cc2C(c2c(F)cccc2OC)=NC3)ccc1C(=O)O + Cc1ccccc1N=Nc1ccc(NC(=O)c2ccnn2C)c(C)c1
- IC50 (second compound 0.1 µM): > 10000 nM
- IC50 (second compound 0.316 µM): > 10000 nM
- IC50 (second compound 1 µM): > 10000 nM
- IC50 (second compound 3.16 µM): 3160 nM
- IC50 (second compound 10 µM): > 10000 nM
- viability, T/C (second compound 0.1 µM, first compound 0.0316 µM): 87.8%
- viability, T/C (second compound 0.1 µM, first compound 0.1 µM): 71.2%
- viability, T/C (second compound 0.1 µM, first compound 0.316 µM): 76%
- viability, T/C (second compound 0.1 µM, first compound 1 µM): 48.9%
- viability, T/C (second compound 0.1 µM, first compound 3.16 µM): 49.6%
- viability, T/C (second compound 0.1 µM, first compound 10 µM): 51.5%
- viability, T/C (second compound 0.316 µM, first compound 0.0316 µM): 79.8%
- viability, T/C (second compound 0.316 µM, first compound 0.1 µM): 68.1%
- viability, T/C (second compound 0.316 µM, first compound 0.316 µM): 68.7%
- viability, T/C (second compound 0.316 µM, first compound 1 µM): 60.6%
- viability, T/C (second compound 0.316 µM, first compound 3.16 µM): 52.6%
- viability, T/C (second compound 0.316 µM, first compound 10 µM): 54.1%
- viability, T/C (second compound 1 µM, first compound 0.0316 µM): 79.5%
- viability, T/C (second compound 1 µM, first compound 0.1 µM): 69.3%
- viability, T/C (second compound 1 µM, first compound 0.316 µM): 60.6%
- viability, T/C (second compound 1 µM, first compound 1 µM): 48.7%
- viability, T/C (second compound 1 µM, first compound 3.16 µM): 52.6%
- viability, T/C (second compound 1 µM, first compound 10 µM): 60.1%
- viability, T/C (second compound 3.16 µM, first compound 0.0316 µM): 64.7%
- viability, T/C (second compound 3.16 µM, first compound 0.1 µM): 64.5%
- viability, T/C (second compound 3.16 µM, first compound 0.316 µM): 69.2%
- viability, T/C (second compound 3.16 µM, first compound 1 µM): 49.2%
- viability, T/C (second compound 3.16 µM, first compound 3.16 µM): 54.9%
- viability, T/C (second compound 3.16 µM, first compound 10 µM): 57.3%
- viability, T/C (second compound 10 µM, first compound 0.0316 µM): 90.6%
- viability, T/C (second compound 10 µM, first compound 0.1 µM): 84.8%
- viability, T/C (second compound 10 µM, first compound 0.316 µM): 85.5%
- viability, T/C (second compound 10 µM, first compound 1 µM): 74.2%
- viability, T/C (second compound 10 µM, first compound 3.16 µM): 75.4%
- viability, T/C (second compound 10 µM, first compound 10 µM): 70.3%

Reference: PubChem BioAssay AID1919009 (Molecular Pharmacology Branch, DTP, NCI, 2023)
